What was measured:
human GluR3A receptor [1] = experiment: AMPA-binding assay, membranes of transfected COS-1 cells
Description: (§1) Transfected cells in the frozen state were resuspended in ice-cold distilled water using a hand homogenizer, sonicated for 5 seconds, and then centrifuged for 20 minutes at 50,000 g. The supernatant was discarded and the membrane pellet stored frozen at −70 C.
(§2) COS cell membrane pellets were suspended in ice cold 50 mM Tris-HCl (pH 7.55, 5 C) and centrifuged again at 50,000 g for 10 minutes in order to remove endogenous glutamate that would compete for binding. Pellets were resuspended in ice cold 50 mM Tris-HCl (pH 7.55) buffer and the resultant membrane preparation was used as tissue source for binding experiments described below. Proteins were determined using the Pierce Reagent with BSA as standard.
Binding assays were then performed, using an amount of COS-derived membrane equivalent to from 25-100 ug as judged by protein determination and selected radiolabelled ligand. In particular, for AMPA-binding assays, incubation mixtures consisted of 25-100 ug tissue protein and D,L-alpha-[5-methyl-3H]amino-3-hydroxy-5-methylisoxazole-4-propionic acid (3H-AMPA, 27.6 Ci/mmole, 10 nM final) with 0.1 M KSCN and 2.5 mM CaCl2 in the 1 ml final volume. Non-specific […] binding was determined in the presence of 1 mM L-glutamate. […] Pellets were washed twice in 6 ml of the cold incubation buffer, then 5 ml of Beckman Ready-Protein Plus scintillation cocktail was added, for counting.

human GluR3B receptor = experiment: binding assays with membrane preparations of engineered mammalian cells
From the text: This feature, coupled with the medically significant connection between AMPA-type receptors and neurological disorders and disease indicate that the present receptors, as well as AMPA-binding fragments and variants thereof, will serve as valuable tools in the screening and discovery of ligands useful to modulate in vivo interactions between such receptors and their natural ligand, glutamate. Thus, a key aspect of the present invention resides in the construction of cells that are engineered genetically to produce human GluR3 receptor, to serve as a ready and homogeneous source of receptor for use in in vitro ligand binding and/or channel activation assays.

human GluR3 receptor = experiment: ligand binding assay (NMDA), membranes of transfected COS cells; details: COS cell membranes
human GluR3A receptor [2] = experiment: kainate-binding assay, membranes of transfected COS-1 cells; details: COS cell membranes; [vinylidene-3H] kainic acid 5 nM
Description: as §1, §2
For kainate-binding assays, incubation mixtures consisted of 25-100 ug tissue protein and [vinylidene-3H] kainic acid (58 Ci/mmole, 5 nM final) in the cold incubation buffer, 1 ml final volume. Non-specific binding was determined in the presence of 1 mM L-glutamate. Samples were incubated as for the AMPA-binding assays, and bound and free ligand were separated by rapid filtration using a Brandel cell harvester and GF/B filters pre-soaked in ice-cold 0.3% polyethyleneimine. Filters were washed twice in 6 ml of the cold incubation buffer, then placed in scintillation vials with 5 ml of Beckman Ready-Protein Plus scintillation cocktail for counting.

SMILES: Cc1onc(O)c1CC(N)C(=O)O (stereo not drawn) [AMPA, alpha-amino-3-hydroxy-5-methyl-isoxazole-4propionate]
- specific binding (human GluR3A receptor [1]; 10 nM [3H]-AMPA, COS cell membranes, non-specific binding with 1 mM L-glutamate, FIG. 7): 25-30 fmole/mg protein
- selective binding relative to kainate and NMDA (human GluR3A receptor [1]; human GluR3A, membrane preparations): bind selectively
- selective binding relative to kainate and NMDA (human GluR3B receptor): bind selectively

SMILES: CN[C@H](CC(=O)O)C(=O)O [NMDA, N-methyl-D-aspartate]
- binding of NMDA (human GluR3 receptor): little or no demonstrable binding

SMILES: C=C(C)[C@H]1CN[C@H](C(=O)O)[C@H]1CC(=O)O [kainate, kainic acid]
- binding of kainate (human GluR3A receptor [2]): little or no demonstrable binding
